The star is where a group is joined. YPEG 2×20 kDa = Y-shaped PEG of 2×20 kDa; Pent4ynoyl = C#CCCC(=O)*; F5 = not defined here; F6 = not defined here
Assays:
[1] = system: carrageenan induced paw edema; assay: Inflammation imaging, carrageenan induced paw edema; type: in vivo, BALB/c female mice; details: 1% carrageenan subcutaneously, fluorescence molecular tomography; FIG. 9
Method: Briefly, BALB/c female mice 6-8 weeks old (Charles River Laboratory, Wilmington, Mass.) were injected subcutaneously with a 1% solution of carrageenan in PBS. After 1 minute post-injection, mice were injected the imaging agent Q91. Imaging was conducted at various time points using a Fluorescence Molecular Tomography system (VisEn Medical, Woburn Mass.).

[2] = system: trypsin; assay: Enzyme activation of R22, trypsin; type: biochemical; details: 0.5 μM R22, 0.05 μM enzyme, room temperature, 24 hours; FIG. 13
Method: (§1) Activation by recombinant enzymes was carried out in 250 μL volumes set up in 96 well plates. MMPs were activated prior to the reaction according to manufacturers' protocols. Reactions contained 0.5 μM of R22 and 0.05 μM of activated enzyme in the appropriate activation buffer for each enzyme and incubated at room temperature for 24 hours. The plates were read at 24 hours with excitation/emission wavelength 740/770 nm. Fluorescence readings were performed using a Gemini (Molecular Devices) Fluorescence Plate Reader. Wells in which no enzyme was added were used as controls. Fold activation was obtained by dividing the enzyme-activated read-out (in relative fluorescence units) by its corresponding control well.

[3] = target: T1, recombinant human MMP-13 (Homo sapiens, UniProt P45452); assay: Enzyme activation of R22, MMP-13; type: biochemical; details: 0.5 μM R22, 0.05 μM enzyme, room temperature, 24 hours; FIG. 13
T1 construct: purchased
Method: as §1

[4] = system: atherosclerotic plaque in ApoE -/- knockout mice; assay: Imaging of macrophage activity in atherosclerotic plaque; type: in vivo; details: intravenous, 6 hours post-injection
Method: Age-matched C57BL6 wild type female mice (Charles river Laboratories) were fed a normal diet and ApoE −/− knockout female mice (Jackson Laboratories) were fed a high cholesterol diet for 10-20 weeks. The mice were injected intravenously with compounds of formula R51 ([mPEG-20kDa-Suc]-Lys(F6)-Gly-Phe-Leu-Gly-Lys(F6)-[NH2]) (SEQ ID NO:435) and R55 ([mPEG-20kDa-Suc]-Lys(F6)-Arg-Arg-Lys(F6)-[NH2]) (SEQ ID NO:438). The mice were then imaged at 6 and 24 hours by fluorescence molecular tomography or fluorescence reflectance using an FMT2500 (VisEn Medical, Bedford, Mass.).

[5] = system: Cathepsin B, Cathepsin K, Cathepsin L, or Cathepsin S; assay: Enzyme activation profiles of R51 to R59, cathepsins; type: biochemical; details: compound 0.5 uM, enzyme 0.05 uM, monitored for 24 hours; FIG. 15
Method: Compounds at a concentration of 0.5 uM were incubated with Cathepsin B, Cathepsin K, Cathepsin L, or Cathepsin S at a concentration of 0.05 uM. The reaction buffers used were as follows: Cathepsin K—50 mM MES, pH 5.0, 2.5 mM EDTA, 2.5 mM DTT; Cathepsin B—25 mM MES, pH 5.0, 1 mM DTT; Cathepsin S—50 mM NaOAc, pH 4.5, 5 mM DTT, 0.25M NaCl; Cathepsin L—50 mM MES, pH 6, 5 mM DTT. The activity was monitored for 24 hours with a Gemini (Molecular Devices) fluorescence plate reader at excitation 663 nm and emission 690 nm with a cut off of […].

Pentynoyl-Lys(F5)-Pro-Leu-Gly-Val-Arg-Lys(F5)-PEG20kDa (Pent4ynoyl-K(F5)PLGVRK(F5)-PEG20kDa; reading uncertain; also: printed as Pentynoyl-Lys(F5)-Pro-Leu-Gly-Val-Arg-Lys(F5)-PEG20kDa) [Agent Q91]
fluorescence in carrageenan injected paw versus control paw [1]: significantly more fluorescence is observed in the mouse paw injected with carrageenan compared to the control paw

[F6]-Gly-Pro-Leu-Gly-Val-Arg-Lys(F6)-[YPEG 2×20 kDa] (F6-GPLGVRK(F6)-{YPEG 2×20 kDa}; reading uncertain; also: printed as [F6]-Gly-Pro-Leu-Gly-Val-Arg-Lys(F6)-[YPEG 2×20 kDa]) [Agent R22]
activation by trypsin (fold activation) [2]: activated primarily
activation by recombinant human MMP-13 (fold activation) [3]: activated primarily

[mPEG-20kDa-Suc]-Lys(F6)-Gly-Phe-Leu-Gly-Lys(F6)-[NH2] ({mPEG‑20kDa‑Suc}-K(F6)GFLGK(F6)-NH2; reading uncertain; also: printed as [mPEG-20kDa-Suc]-Lys(F6)-Gly-Phe-Leu-Gly-Lys(F6)-[NH2]) [Agent R51]
fluorescent signal in ApoE knockout mice versus wild type controls ([4]; fluorescence molecular tomography, FIG. 17): greater fluorescent signal in the ApoE knockout mice over controls
fluorescent signal in ApoE knockout mice versus wild type controls ([4]; tomography and reflectance, FIG. 16): greater fluorescent signal in the ApoE knockout mice over controls
activation by various Cathepsin proteases compared with the other imaging agents [5]: greater than that of the other imaging agents
